Test systems include CAKI-1 renal; DU-145 prostate; UO-31 renal; PC-3 prostate; NCI-H522 lung; MDA-MB-435.
What all share (test): NCI-60 cell line screen, 48 h

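Grown in 96-well plates, cells were treated for 48 hours with each compound at five concentrations. Insufficient inhibition: endpoint recorded as highest concentration tested. GI50 is the concentration that inhibits growth by half. The concentration for full growth arrest is given as TGI.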 Bounds are passed on as bounds.

As for `OCCCN=NNc1ccc(-c2nc3ccccc3[nH]2)cc1`, the GI50 in the experiment with CAKI-1 renal is 15.4 µM; in the experiment with DU-145 prostate, 4.12 µM; with UO-31 renal, 23.9 µM; in the experiment with PC-3 prostate it was 24.1 µM; with NCI-H522 lung, 12.5 µM; in the experiment on MDA-MB-435 it was 3.44 µM. Further, the TGI in the experiment with CAKI-1 renal is 39.3 µM; in the experiment with DU-145 prostate it was over 100 µM; with UO-31 renal it was 78.1 µM; in the experiment with PC-3 prostate it was 77.5 µM; in the experiment on NCI-H522 lung it was 60.6 µM; in the experiment with MDA-MB-435, 16.1 µM.

Take `CC(=O)Nc1ccc(Sc2ccc([N+](=O)[O-])o2)cc1`: the GI50 with CAKI-1 renal was 1.41 µM; with DU-145 prostate it was 2.26 µM; with UO-31 renal, 3.9 µM; in the experiment on PC-3 prostate, 2.23 µM; in the experiment on NCI-H522 lung, 0.214 µM; with MDA-MB-435, 1.7 µM. The TGI in the experiment with CAKI-1 renal amounted to 3.06 µM; in the experiment on DU-145 prostate, 5.98 µM; in the experiment on UO-31 renal it was 13 µM; in the experiment with PC-3 prostate, 6.58 µM; in the experiment on NCI-H522 lung it was 0.711 µM; with MDA-MB-435 it was 3.44 µM.

In the case of `COc1cc(/C=C/c2cc(/C=C/c3ccc(O)c(OC)c3)n(-c3c(C)cccc3C)c(=O)n2)ccc1O`, the GI50 in the experiment with CAKI-1 renal was 0.859 µM; with UO-31 renal, 0.352 µM; in the experiment with PC-3 prostate, 1.17 µM; in the experiment on NCI-H522 lung it was 0.264 µM. Further, the TGI with CAKI-1 renal was 14.9 µM; in the experiment with UO-31 renal it was 2.53 µM; in the experiment on PC-3 prostate, 6.52 µM; in the experiment on NCI-H522 lung, 1.04 µM.

As to `O=C1C(Br)=CC2(C=C1Br)CCN=c1c2c(O)c2nc3ccccc3c3ccnc1c23`, the GI50 is 1.01 µM in the experiment with CAKI-1 renal; 1.95 µM in the experiment on DU-145 prostate; 0.761 µM in the experiment with UO-31 renal; 1.44 µM with PC-3 prostate; 0.727 µM in the experiment on NCI-H522 lung; 1.18 µM in the experiment on MDA-MB-435. Moreover, the TGI in the experiment with CAKI-1 renal amounted to 3.29 µM; with DU-145 prostate it was 24.8 µM; in the experiment with UO-31 renal, 1.55 µM; in the experiment on PC-3 prostate it was 5.27 µM; in the experiment with NCI-H522 lung, 1.49 µM; with MDA-MB-435 it was 3.09 µM.

Consider `C=C1C[C@](OC)([C@H](O)C(=O)N[C@@H](OC)[C@@H]2C[C@@H](O)C(C)(C)[C@@H](C[C@@H](COC)OC)O2)O[C@H](C)[C@@H]1C`, for which the GI50 in the experiment with CAKI-1 renal was 0.00184 µM; in the experiment on DU-145 prostate, 0.00145 µM; in the experiment on UO-31 renal, 0.00267 µM; in the experiment with NCI-H522 lung, 0.00194 µM; in the experiment with MDA-MB-435, 0.00162 µM. The TGI amounted to 0.00544 µM in the experiment with CAKI-1 renal; 0.00496 µM in the experiment with DU-145 prostate; 0.0295 µM in the experiment on UO-31 renal; 0.00725 µM in the experiment on NCI-H522 lung; 0.00507 µM with MDA-MB-435.

On to `COc1cccc(C2C(C#N)=C(N)Oc3cc(N)ccc32)c1` (stereo not given), for which the GI50 is 0.47 µM with CAKI-1 renal; 0.71 µM in the experiment on DU-145 prostate; 0.858 µM in the experiment on UO-31 renal; 0.509 µM in the experiment on PC-3 prostate; 0.242 µM in the experiment on NCI-H522 lung; 0.138 µM in the experiment on MDA-MB-435. Besides, the TGI is over 100 µM in the experiment with CAKI-1 renal; 34 µM with DU-145 prostate; over 100 µM in the experiment on UO-31 renal; over 100 µM in the experiment with PC-3 prostate; 0.771 µM in the experiment with NCI-H522 lung; 0.672 µM with MDA-MB-435.

`CC(C)CCOc1ccc(-c2n[nH]c(C(F)(F)F)c2-c2cncc(C#N)c2)c(O)c1`: the GI50 in the experiment with CAKI-1 renal was 3.17 µM; in the experiment on DU-145 prostate, 4.18 µM; in the experiment on UO-31 renal, 1.98 µM; in the experiment with PC-3 prostate it was 2.12 µM; in the experiment on NCI-H522 lung, 1.8 µM; with MDA-MB-435, 3.6 µM. In addition, the TGI was 13.6 µM in the experiment with CAKI-1 renal; 46.3 µM in the experiment with DU-145 prostate; 7.61 µM in the experiment with UO-31 renal; over 100 µM with PC-3 prostate; 10 µM in the experiment with NCI-H522 lung; 32.6 µM in the experiment on MDA-MB-435.

Regarding `CCN(CC)CCCNc1cccc2c(SCc3ccccc3)ccnc12`, the GI50 in the experiment on CAKI-1 renal is 1.59 µM; in the experiment on DU-145 prostate it was 1.86 µM; in the experiment on UO-31 renal, 0.828 µM; in the experiment with PC-3 prostate, 1.86 µM; with NCI-H522 lung, 1.51 µM; in the experiment with MDA-MB-435, 1.84 µM. The TGI in the experiment with CAKI-1 renal turned out to be 3.21 µM; in the experiment with DU-145 prostate, 3.49 µM; in the experiment on UO-31 renal it was 2.44 µM; with PC-3 prostate, 4.88 µM; in the experiment with NCI-H522 lung it was 3.1 µM; with MDA-MB-435, 3.65 µM.

For the compound `O=C(O)C1C(C(=O)Nc2ccc3c(c2)Cc2ccccc2-3)C2(Cl)C(Cl)=C(Cl)C1(Cl)C2(Cl)Cl` (stereo not given), the TGI is over 100 µM with CAKI-1 renal; over 100 µM in the experiment on DU-145 prostate; 55.5 µM with UO-31 renal; 30 µM in the experiment on PC-3 prostate; 39.2 µM with NCI-H522 lung; 76.8 µM with MDA-MB-435.

`ClC1=C(Cl)C(Cl)=C(Cl)C1=C/C=C/c1ccccc1`: the GI50 was 0.198 µM in the experiment on CAKI-1 renal; 0.42 µM in the experiment on DU-145 prostate; 0.201 µM with UO-31 renal; 0.276 µM in the experiment with PC-3 prostate; 0.216 µM in the experiment with NCI-H522 lung; 0.302 µM in the experiment with MDA-MB-435. For the same compound, the TGI was found to be 0.561 µM in the experiment on CAKI-1 renal; 1.32 µM in the experiment with DU-145 prostate; 0.756 µM in the experiment on UO-31 renal; 2.65 µM in the experiment with PC-3 prostate; 0.562 µM in the experiment with NCI-H522 lung; 0.977 µM with MDA-MB-435.

Turning to `CCSCC(N)C(=O)O` (stereo not given), the TGI in the experiment on CAKI-1 renal, in the experiment with DU-145 prostate, with UO-31 renal, with PC-3 prostate, in the experiment with NCI-H522 lung and in the experiment on MDA-MB-435 was over 100 µM in each case.

On to `NC(CSC(c1ccccc1)(c1ccccc1)c1ccc(Cl)cc1)C(=O)O` (stereo not given), for which the GI50 was 0.37 µM in the experiment on CAKI-1 renal; 0.307 µM with DU-145 prostate; 6.13 µM with UO-31 renal; 0.342 µM in the experiment with PC-3 prostate; 0.128 µM in the experiment with NCI-H522 lung; 0.0344 µM with MDA-MB-435. In addition, the TGI with DU-145 prostate is 0.863 µM; in the experiment on UO-31 renal it was over 83.4 µM; with PC-3 prostate, 32.6 µM; in the experiment on NCI-H522 lung it was 3.71 µM; in the experiment on MDA-MB-435, 0.158 µM.

Regarding `CC(C)C1OC(=O)C=C1Sc1ccccc1` (stereo not given), the TGI in the experiment with CAKI-1 renal, with DU-145 prostate, with PC-3 prostate, in the experiment with NCI-H522 lung and in the experiment with MDA-MB-435 was over 100 µM throughout.

The record behind these values is PubChem BioAssay (NCI).
